Data on one compound can be found in PMC9631063, “Schisandrin B Attenuates Diabetic Cardiomyopathy by Targeting MyD88 and Inhibiting MyD88‐Dependent Inflammation” (Advanced Science, 2022).

In this assay the target is T1, rhMyD88(TIR) (Homo sapiens, UniProt Q99836).
T1 construct: gene MYD88; Results text calls it only rhMyD88
As to the kind of experiment: isothermal titration calorimetry (Nano-ITC). The class given is binding.

T1 sequence (Q99836 159-296 limits assumed): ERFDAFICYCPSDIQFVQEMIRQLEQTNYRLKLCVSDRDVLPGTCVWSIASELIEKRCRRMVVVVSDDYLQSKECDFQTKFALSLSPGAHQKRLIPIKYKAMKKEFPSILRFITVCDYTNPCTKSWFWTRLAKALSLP

As for `COc1cc2c(c(OC)c1OC)-c1c(cc3c(c1OC)OCO3)CC(C)C(C)C2` (stereo not shown) [Schisandrin B], the affinity, expressed as Kd, was 125 µM.
